Values joined by “and” are separate entries in the source; they are usually repeats but may differ in a detail not shown here. Equal entries are not always repeated. Inconclusive results and toxic doses are left out.
System: BDF1 mice, P388 leukemia ip, median survival T/C
Experiment: NCI In Vivo Anticancer Drug Screen. Data for tumor model P388 Leukemia (intraperitoneal) in B6D2F1 (BDF1) mice
Conditions: endpoint: median survival time, higher = longer survival
Outline: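 Mice carrying the transplantable tumour receive compound or vehicle. Survival is followed in each arm, and the treated measure is divided by the vehicle measure.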

[1] = dose: 100.0 mg/kg/injection, schedule: Q01DX009 (ip), vehicle: saline
[2] = dose: 100.0 mg/kg/injection, schedule: Q04DX003 (ip), vehicle: saline
[3] = dose: 200.0 mg/kg/injection, schedule: Q01DX009 (ip), vehicle: saline
[4] = dose: 200.0 mg/kg/injection, schedule: Q04DX003 (ip), vehicle: saline
[5] = dose: 400.0 mg/kg/injection, schedule: Q01DX009 (ip), vehicle: saline
[6] = dose: 400.0 mg/kg/injection, schedule: Q04DX003 (ip), vehicle: saline
[7] = dose: 50.0 mg/kg/injection, schedule: Q01DX009 (ip), vehicle: saline with Tween-80
[8] = dose: 100.0 mg/kg/injection, schedule: Q01DX009 (ip), vehicle: saline with Tween-80
[9] = dose: 200.0 mg/kg/injection, schedule: Q01DX009 (ip), vehicle: saline with Tween-80
[10] = dose: 100.0 mg/kg/injection, schedule: Q01DX009 (ip), vehicle: Klucel (hydroxypropylcellulose) (HPC)
[11] = dose: 100.0 mg/kg/injection, schedule: Q04DX003 (ip), vehicle: Klucel (hydroxypropylcellulose) (HPC)
[12] = dose: 200.0 mg/kg/injection, schedule: Q01DX009 (ip), vehicle: Klucel (hydroxypropylcellulose) (HPC)
[13] = dose: 200.0 mg/kg/injection, schedule: Q04DX003 (ip), vehicle: Klucel (hydroxypropylcellulose) (HPC)
[14] = dose: 25.0 mg/kg/injection, schedule: Q01DX009 (ip), vehicle: saline
[15] = dose: 50.0 mg/kg/injection, schedule: Q01DX009 (ip), vehicle: saline
[16] = dose: 400.0 mg/kg/injection, schedule: Q04DX003 (ip), vehicle: saline with Tween-80
[17] = dose: 12.5 mg/kg/injection, schedule: Q01DX009 (ip), vehicle: saline
[18] = dose: 50.0 mg/kg/injection, schedule: Q04DX003 (ip), vehicle: saline
[19] = dose: 25.0 mg/kg/injection, schedule: Q01DX009 (ip), vehicle: saline with Tween-80

For CCN(CC)C(=O)Cn1ccc(NC(C)=O)nc1=O, the T/C [1] was 104 % of control, the T/C [2] was 95 % of control and the T/C [3] was 86 % of control. For the same molecule, the T/C [4] was 100 % of control, the T/C [5] was 100 % of control and the T/C [6] was 100 % of control.

COc1ccc(/C(=C\S(C)=O)c2cccs2)cc1 (centres undefined) was tested, and the T/C [7] was 105 % of control, the T/C [8] was 107 % of control and the T/C [9] was 100 % of control.

With Cc1cc(N(CCCl)CCCl)ccc1C=NC1CCCC1 the T/C [10] was 150 % of control, the T/C [11] was 95 % of control and the T/C (dose: 133.0 mg/kg/injection, schedule: Q01DX009 (ip), vehicle: Klucel (hydroxypropylcellulose) (HPC)) was 169 % of control. The T/C [12] was 188 % of control and 200 % of control and the T/C [13] was 108 % of control.

In the case of CCCCSC1=CC(=O)c2ccccc2C1=O, the T/C (dose: 3.12 mg/kg/injection, schedule: Q01DX009 (ip), vehicle: Klucel (hydroxypropylcellulose) (HPC)) is reported as 92 % of control and 104 % of control, the T/C (dose: 6.25 mg/kg/injection, schedule: Q01DX009 (ip), vehicle: Klucel (hydroxypropylcellulose) (HPC)) is reported as 100 % of control and 116 % of control and the T/C (dose: 12.5 mg/kg/injection, schedule: Q01DX009 (ip), vehicle: Klucel (hydroxypropylcellulose) (HPC)) is reported as 100 % of control and 107 % of control and 108 % of control.

For CC1(C)N=C(N)N=C(N)N1c1ccc(OCCNC(=O)Nc2ccc(S(=O)(=O)F)cc2)c(Cl)c1, the T/C (dose: 4.8 mg/kg/injection, schedule: Q01DX009 (ip), vehicle: saline) was 118 % of control, the T/C [14] was 175 % of control and the T/C [15] was 180 % of control. For the same molecule, the T/C (dose: 66.0 mg/kg/injection, schedule: Q01DX009 (ip), vehicle: saline) was 168 % of control, the T/C (dose: 66.0 mg/kg/injection, schedule: Q04DX003 (ip), vehicle: saline) was 123 % of control and the T/C [1] was 159 % of control and 200 % of control.

With CCOC(=O)c1c[nH]c2cc(C(F)(F)F)ccc2c1=O the T/C (dose: 6.25 mg/kg/injection, schedule: Q01DX009 (ip), vehicle: gum acacia) was 116 % of control, the T/C (dose: 12.5 mg/kg/injection, schedule: Q01DX009 (ip), vehicle: gum acacia) was 100 % of control and the T/C (dose: 25.0 mg/kg/injection, schedule: Q01DX009 (ip), vehicle: gum acacia) was 98 % of control. The T/C (dose: 25.0 mg/kg/injection, schedule: Q04DX003 (ip), vehicle: gum acacia) was 91 % of control and the T/C (dose: 100.0 mg/kg/injection, schedule: Q04DX003 (ip), vehicle: gum acacia) was 87 % of control.

With CCN(CCNc1ccc(C)c2sc3cc(Cl)ccc3c(=O)c12)CC(C)O (centres undefined) the T/C [1] was 109 % of control and the T/C [3] was 104 % of control.

With Cc1c(Cl)cccc1NC(=O)Nc1cccc2ccccc12 the T/C (dose: 100.0 mg/kg/injection, schedule: Q04DX003 (ip), vehicle: saline with Tween-80) was 91 % of control, the T/C (dose: 200.0 mg/kg/injection, schedule: Q04DX003 (ip), vehicle: saline with Tween-80) was 100 % of control and the T/C [16] was 108 % of control.

For Cc1cc2nc[nH]c(=O)n2n1, the T/C [7] was 110 % of control and the T/C [8] was 90 % of control.

With COc1cc(C=NC(CO)C(=O)O)ccc1O.COc1cc(C=NC(CO)C(=O)O)ccc1O.[Fe] (centres undefined) the T/C [1] was 100 % of control, the T/C [2] was 100 % of control and the T/C [3] was 100 % of control. For the same molecule, the T/C [4] was 95 % of control and the T/C [6] was 95 % of control.

C=CC[Se]c1nc(N)nc2c1ncn2C1OC(CO)C(O)C1O (centres undefined) was tested, and the T/C (dose: 6.25 mg/kg/injection, schedule: Q01DX009 (ip), vehicle: saline) was 105 % of control, the T/C (dose: 6.25 mg/kg/injection, schedule: Q04DX003 (ip), vehicle: saline) was 100 % of control and the T/C [17] was 111 % of control. For the same molecule, the T/C (dose: 12.5 mg/kg/injection, schedule: Q04DX003 (ip), vehicle: saline) was 100 % of control, the T/C [14] was 100 % of control and the T/C (dose: 25.0 mg/kg/injection, schedule: Q04DX003 (ip), vehicle: saline) was 95 % of control and 104 % of control. The T/C [18] was 90 % of control and the T/C [2] was 90 % of control.

For CC(=O)Nc1cc(C)no1, the T/C [1] was 90 % of control, the T/C [2] was 109 % of control and the T/C [3] was 95 % of control. For the same molecule, the T/C [4] was 109 % of control, the T/C [5] was 100 % of control and the T/C [6] was 104 % of control.

For COC(=O)[C@H]1[C@H]2C[C@@H]3c4[nH]c5cc(OC)ccc5c4CCN3C[C@H]2C[C@@H](OC(=O)/C=C/c2cc(OC)c(OC)c(OC)c2)[C@@H]1OC, the T/C (dose: 0.63 mg/kg/injection, schedule: Q01DX009 (ip), vehicle: saline with Tween-80) was 90 % of control, the T/C (dose: 1.25 mg/kg/injection, schedule: Q01DX009 (ip), vehicle: saline with Tween-80) was 90 % of control and the T/C (dose: 2.5 mg/kg/injection, schedule: Q01DX009 (ip), vehicle: saline with Tween-80) was 90 % of control.

With CCCCCCCCCCCCCC[N+]1([O-])CCCC1 the T/C [17] was 108 % of control, the T/C [14] was 100 % of control and the T/C [15] was 95 % of control.

In the case of O=Cc1[nH]c(=S)[nH]c(=O)c1Cc1ccccc1Cl, the T/C [11] is reported as 100 % of control, the T/C [13] is reported as 100 % of control and the T/C (dose: 400.0 mg/kg/injection, schedule: Q04DX003 (ip), vehicle: Klucel (hydroxypropylcellulose) (HPC)) is reported as 100 % of control.

In the case of Cc1cc(C)c(NC(=O)N(CCCl)N=O)cc1C, the T/C (dose: 20.0 mg/kg/injection, schedule: Q01DX009 (ip), vehicle: other) is reported as 110 % of control, the T/C (dose: 45.0 mg/kg/injection, schedule: Q01DX009 (ip), vehicle: other) is reported as 100 % of control and the T/C (dose: 50.0 mg/kg/injection, schedule: Q01DX009 (ip), vehicle: other) is reported as 122 % of control. The T/C [7] was 105 % of control, the T/C [18] was 108 % of control and the T/C (dose: 65.0 mg/kg/injection, schedule: Q01DX009 (ip), vehicle: other) was 150 % of control. For the same molecule, the T/C [8] was 105 % of control, the T/C [2] was 108 % of control and the T/C (dose: 200.0 mg/kg/injection, schedule: Q01DX009 (ip), vehicle: other) was 122 % of control. For the same molecule, the T/C [9] was 105 % of control and the T/C [4] was 95 % of control.

In the case of CN(C)c1ccc(/C=C2\C=Cc3ccccc32)cc1, the T/C (dose: 3.12 mg/kg/injection, schedule: Q04DX003 (ip), vehicle: saline with Tween-80) is reported as 90 % of control, the T/C (dose: 6.25 mg/kg/injection, schedule: Q04DX003 (ip), vehicle: saline with Tween-80) is reported as 90 % of control and the T/C (dose: 12.5 mg/kg/injection, schedule: Q04DX003 (ip), vehicle: saline with Tween-80) is reported as 92 % of control and 100 % of control. For the same molecule, the T/C [19] was 100 % of control, the T/C [7] was 103 % of control and the T/C [8] was 96 % of control and 100 % of control. For the same molecule, the T/C [9] was 90 % of control and the T/C [16] was 96 % of control.

For CCCCCC/C=C/C#CCCCCCCCC(=O)O, the T/C (dose: 37.5 mg/kg/injection, schedule: Q01DX009 (ip), vehicle: Klucel (hydroxypropylcellulose) (HPC)) was 106 % of control, the T/C (dose: 75.0 mg/kg/injection, schedule: Q01DX009 (ip), vehicle: Klucel (hydroxypropylcellulose) (HPC)) was 100 % of control and the T/C (dose: 150.0 mg/kg/injection, schedule: Q01DX009 (ip), vehicle: Klucel (hydroxypropylcellulose) (HPC)) was 109 % of control.

In the case of CN=C1C=C(NC)C(F)(F)C1(F)F, the T/C (dose: 6.25 mg/kg/injection, schedule: Q01DX009 (ip), vehicle: saline with Tween-80) is reported as 95 % of control, the T/C (dose: 12.5 mg/kg/injection, schedule: Q01DX009 (ip), vehicle: saline with Tween-80) is reported as 100 % of control and the T/C (dose: 12.5 mg/kg/injection, schedule: Q04DX003 (ip), vehicle: Klucel (hydroxypropylcellulose) (HPC)) is reported as 100 % of control. The T/C [19] was 100 % of control and the T/C (dose: 25.0 mg/kg/injection, schedule: Q04DX003 (ip), vehicle: Klucel (hydroxypropylcellulose) (HPC)) was 100 % of control.

In the case of CC1=CC(c2ccccc2)=CC(C)(C)C1 (tested in a mixture with another compound), the T/C (dose: 25.0 mg/kg/injection, schedule: Q01DX009 (ip), vehicle: saline sonified) is reported as 104 % of control, the T/C (dose: 50.0 mg/kg/injection, schedule: Q01DX009 (ip), vehicle: saline sonified) is reported as 109 % of control and the T/C (dose: 100.0 mg/kg/injection, schedule: Q01DX009 (ip), vehicle: saline sonified) is reported as 109 % of control.

c1csc(CSc2ncnc3nc[nH]c23)c1 was tested, and the T/C [8] was 100 % of control and the T/C [9] was 100 % of control.

With Cc1cc(C)n(-c2nn3nnnc3c3ccccc23)n1 the T/C [15] was 95 % of control, the T/C [1] was 95 % of control and the T/C [3] was 93 % of control.

With CCCNC(=O)NO the T/C [10] was 119 % of control, the T/C (dose: 100.0 mg/kg/injection, schedule: Q04DX003 (ip), vehicle: other) was 87 % of control and the T/C [12] was 104 % of control. For the same molecule, the T/C (dose: 200.0 mg/kg/injection, schedule: Q04DX003 (ip), vehicle: other) was 104 % of control, the T/C (dose: 400.0 mg/kg/injection, schedule: Q01DX009 (ip), vehicle: Klucel (hydroxypropylcellulose) (HPC)) was 114 % of control and the T/C (dose: 400.0 mg/kg/injection, schedule: Q04DX003 (ip), vehicle: other) was 104 % of control.

From PubChem BioAssay AID328 (DTP/NCI, 2004)
